Data published in patent publication US20200055817A1 (AbbVie Deutschland GmbH & Co. KG, priority 2016, published 2020).
Structures can show the parent of a compound that is named as a salt.

Key:
Assay type in all cases: cell-based
[1] = target: T1, human EDG8 (S1PR5) receptor (Homo sapiens, UniProt Q9H228); test: Aequorin assay, agonist potency, CHO-A21-EDG8#12 cells; details: agonist mode, aequorin luminescence; read-out: S1P5 EC50 range #
T1 construct: carries the transgenes human EDG8 (S1PR5) receptor (Acession number NP_110387.1); expressed in transfected cells; host or cells: CHO-A21-EDG8#12 (CHO clone co-expressing mitochondrial aequorin and chimaeric Gaqi5)
T1 sequence (Q9H228 whole entry): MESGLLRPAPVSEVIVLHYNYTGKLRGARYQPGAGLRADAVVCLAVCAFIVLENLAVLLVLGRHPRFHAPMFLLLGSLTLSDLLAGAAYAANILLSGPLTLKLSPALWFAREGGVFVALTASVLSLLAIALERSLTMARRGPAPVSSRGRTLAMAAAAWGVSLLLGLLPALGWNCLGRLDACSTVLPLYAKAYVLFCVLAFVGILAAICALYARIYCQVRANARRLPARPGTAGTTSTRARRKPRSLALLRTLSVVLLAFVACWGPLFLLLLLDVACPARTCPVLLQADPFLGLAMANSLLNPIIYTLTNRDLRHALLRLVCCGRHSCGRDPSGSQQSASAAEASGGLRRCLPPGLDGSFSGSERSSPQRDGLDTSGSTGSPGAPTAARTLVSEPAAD
Procedure, shortened: (§1)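 CHO cells coexpressing receptor, mitochondrial aequorin and Gαqi5 (S1P3 pool: GNA16) were loaded overnight at RT with 5 μM coelenterazine h in 0.1% fatty-acid-free BSA buffer. Cells were injected onto compound, luminescence recorded 90 s and integrated, normalised to digitonin or 20 μM ATP; sigmoidal fit.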

[2] = target: T2, human EDG1 (S1PR1) receptor (Homo sapiens, UniProt P21453); test: Aequorin assay, agonist potency, CHO-A21-Edg1#17 cells; details: agonist mode, aequorin luminescence; read-out: S1P1 EC50
T2 construct: expressed in transfected cells; host or cells: CHO-A21-Edg1#17 (CHO clone co-expressing mitochondrial aequorin and chimaeric Gaqi5)
T2 sequence (P21453 whole entry): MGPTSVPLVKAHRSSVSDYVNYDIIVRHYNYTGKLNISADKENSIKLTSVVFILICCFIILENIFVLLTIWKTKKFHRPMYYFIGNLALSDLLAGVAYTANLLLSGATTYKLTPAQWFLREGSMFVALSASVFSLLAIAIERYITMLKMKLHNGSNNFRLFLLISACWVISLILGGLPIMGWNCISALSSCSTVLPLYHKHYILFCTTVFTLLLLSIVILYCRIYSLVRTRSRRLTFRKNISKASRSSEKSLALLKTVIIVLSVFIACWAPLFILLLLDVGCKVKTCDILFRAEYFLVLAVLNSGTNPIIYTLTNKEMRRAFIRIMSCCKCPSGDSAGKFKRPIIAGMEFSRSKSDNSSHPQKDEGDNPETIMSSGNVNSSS
Procedure, shortened: as §1

[3] = target: T3, human EDG3 (S1PR3) receptor (Homo sapiens, UniProt Q99500); test: Aequorin assay, agonist potency, CHO-A2-S1P3 Mix cells; details: agonist mode, aequorin luminescence
T3 construct: expressed in transfected cells; host or cells: CHO-A2-S1P3 Mix (CHO cell pool co-expressing mitochondrial aequorin and GNA16)
T3 sequence (Q99500 whole entry): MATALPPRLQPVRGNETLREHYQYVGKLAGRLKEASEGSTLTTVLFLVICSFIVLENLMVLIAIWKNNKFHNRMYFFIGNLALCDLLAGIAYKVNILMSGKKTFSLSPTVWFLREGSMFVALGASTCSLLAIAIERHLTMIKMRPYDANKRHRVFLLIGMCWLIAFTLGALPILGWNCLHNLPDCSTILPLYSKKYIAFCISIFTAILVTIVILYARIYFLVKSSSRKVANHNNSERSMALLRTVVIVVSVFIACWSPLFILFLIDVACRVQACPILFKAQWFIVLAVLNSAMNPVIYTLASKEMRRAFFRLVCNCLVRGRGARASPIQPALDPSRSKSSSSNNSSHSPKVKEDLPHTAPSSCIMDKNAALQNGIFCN
Protocol: Agonistic activity was measured as described below.
Cell clone CHO-A21-Edg1#17 carries the transgenes human EDG1 (S1PR1) receptor (Accession number NP_001391.2), mitochondrially targeted Aequorin (active part corresponds to accession number 1SL8_A) and chimaeric Gaqi5=Gaq modified with the 5 C-terminal amino-acids replaced with those of the Gai protein (DCGLF). CHO-A2-S1P3 Mix is a cell pool ectopically expressing human EDG3 (S1PR3) receptor (Accession number NP_005217.2) mitochondrially targeted Aequorin (active part has a sequence similar to accession number AY601106.1) and GNA16 (Accession number NP_002059.3). Cell clone CHO-A21-EDG8#12 carries the transgenes human EDG8 (S1PR5) receptor (Acession number NP_110387.1), mitochondrially expressed Aequorin (active part corresponds to accession number 1SL8_A) and chimaeric Gaqi5 (Gaq modified to present the 5 last amino-acids of the Gai protein “DCGLF”; see above). Cells are grown to mid-log phase in culture medium (HAM's F12, 10% FBS, 100 IU/mL penicillin, 100 μg/mL streptomycin, 250 μg/mL Zeocin, 400 μg/mL G418). 18 hours prior to frozen cells preparation, the medium is changed to remove the antibiotics.
18 hours prior to the test, vials of frozen cells are quickly thawed in a 37° C. water bath, cells are recovered by centrifugation and resuspended in assay buffer (DMEM/HAM's F12 with HEPES, without phenol red+0.1% fatty acid-free BSA). Cells are gently agitated in suspension overnight at RT in presence of 5 μM of Coelenterazine h (Molecular Probes). On the day of the test, cells are diluted to their final working concentrations in assay buffer and agitated in suspension for 1 h at RT. Cells are then placed in the luminescence reader (Hamamatsu Functional Drug Screening System 6000, FDSS6000). During cells incubation, compounds are prepared in 100% DMSO, and subsequently diluted in assay buffer. Compounds are then dispensed in the assay plate (black, clear-bottom, 384-well plate). After binding of agonists to the human S1P receptor the intracellular calcium concentration increases and binding of calcium to the Aequorin/Coelenterazine complex leads to an oxidation reaction of coelenterazine, which results in the production of Aequorin, coelenteramide, CO2 and light (Dmax 469 nm). The luminescent response is dependent on the agonist concentration. For agonist testing, 30 μL of cell suspension are injected on 30 μL of test compound or reference agonist in the assay plate. The resulting emission of light is recorded for 90 seconds using the FDSS6000. Dose response curves with the reference compounds are performed before testing the compounds. S1P is the reference agonist and JTE-013 the reference antagonist for S1P2.
Luminescence data are integrated over the reading interval for agonist and antagonist modes. To standardize the emission of recorded light (determination of the “100% signal”) across plates and across different experiments, some of the wells contain 100 μM digitonin or a saturating concentration of ATP (20 μM). Plates also contain the reference agonist at a concentration equivalent to the EC80 obtained during the test validation and the EC100. Dose-response data from test compounds were analyzed with XLfit (IDBS) software using nonlinear regression applied to a sigmoidal dose-response model and the following equation: […]

[4] = target: T4, S1P4 (Homo sapiens, UniProt O95977); test: Aequorin assay, agonist potency, S1P4; details: agonist mode, aequorin luminescence
T4 sequence (O95977 1-384): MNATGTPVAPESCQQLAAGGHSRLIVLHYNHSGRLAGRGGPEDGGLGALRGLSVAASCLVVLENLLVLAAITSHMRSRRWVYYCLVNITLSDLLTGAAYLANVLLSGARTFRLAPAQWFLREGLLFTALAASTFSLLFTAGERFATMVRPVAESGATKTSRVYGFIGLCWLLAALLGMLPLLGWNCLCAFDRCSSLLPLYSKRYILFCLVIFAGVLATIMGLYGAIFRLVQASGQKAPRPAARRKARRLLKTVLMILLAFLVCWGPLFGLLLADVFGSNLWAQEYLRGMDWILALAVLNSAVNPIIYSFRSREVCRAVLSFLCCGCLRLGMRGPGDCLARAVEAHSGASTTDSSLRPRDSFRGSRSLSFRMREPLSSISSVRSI
Procedure, shortened: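 Aequorin luminescence read over 90 s after adding coelenterazine h–loaded cells (5 μM, overnight, RT) to test compound in phenol red-free DMEM/F12 buffer containing 0.1% fatty acid-free BSA. Responses integrated, scaled to the 100% signal from 100 μM digitonin or 20 μM ATP, and fitted to a sigmoidal dose-response model.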

Compound: CCc1cccc(Cl)c1COc1ccc2c(c1)CC1(C2)CN(CCC(=O)O)C1 [Example 7, 3-(5′-((2-chloro-6-ethylbenzyl)oxy)-1′,3′-dihydrospiro[azetidine-3,2′-inden]-1-yl)propanoic acid hydrochloride]
- EC50 [1]: ≤ 0.01 µM
- EC50 [2]: > 1 µM
- EC50 [3]: > 1 µM
- EC50 [4]: < 1 µM
